Results on one compound are retold here after ChEMBL document CHEMBL5034023, “Development of Multifunctional and Orally Active Cyclic Peptide Agonists of Opioid/Neuropeptide FF Receptors that Produce Potent, Long-Lasting, and Peripherally Restricted Antinociception with Diminished Side Effects” (J Med Chem, 2021).

Calls of active or inactive are those of the source. The rule behind the calls is not given here. Bridge positions count the residues as written; N and C are the ends. Square brackets hold non-standard residues; d marks the D form. Peptide text beside a SMILES is read from it. NMeF = CN[C@@H](Cc1ccccc1)C(=O)O

Data set [1] has as its system Mus musculus. The data set is described as follows: Antinociceptive activity against Kunming mouse model of thermal-induced nociception assessed as prolongation of tail-flick latency period at 8.68 nmol/kg, po in presence of NTI at 1 mg/kg, ip measured up to 240 mins by tail-flick test. In kind it is functional, organism-based. Conditions: time min <=240. (In general: Thermal pain tests record how soon the animal reacts.)

Data set [2] can be described thus: MRT (0 to infinity) in Kunming mouse at 868.1 nmol/kg, iv measured up to 120 mins by LC-MS/MS analysis. Particulars: in vivo. In kind it is ADME, organism-based.
Data set [3] relates to Mus musculus. The data set is described as follows: Antinociceptive activity in Kunming mouse assessed as analgesic tolerance by measuring fold shift in maximal possible effect at 8.68 nmol/kg, po administered for 8 consecutive days by tail flick test. In kind it is functional.

A word on the MRT inf: it is the average time that molecules of a dose stay in the body. With `CN1C(=O)CNC(=O)[C@H](NC(=O)[C@@H](N)Cc2ccc(O)cc2)CCCCNC(=O)C[C@@H](C(=O)N2CCC[C@H]2C(=O)N[C@@H](CCC(N)=O)C(=O)N[C@@H](CCCNC(=N)N)C(=O)N[C@@H](Cc2ccccc2)C(N)=O)NC(=O)[C@@H]1Cc1ccccc1` (H-Y[dK]G[NMeF]DPQRF-NH2; lactam 2-5), the outcome with Mus musculus [1] was Active. In data set [2], this compound had a mean residence time (MRT inf) of 5 min. Moreover, the “fold change (FC)” value with Mus musculus [3] stood at 0.92.
